In the NIST ThermoML archive (doi:10.1021/acs.jced.8b01099):
± gives the expanded uncertainty stated by the source.

What was measured:
[1] = Crystal; DSC
[2] = Molar enthalpy of transition or fusion; settings: Crystal; DSC

For `CC(C)N1C(=O)N(c2ccccc2)CSC1=NC(C)(C)C` [buprofezin], the Triple point temperature [1] was 377.95 ± 1.2 K and the “Molar enthalpy of transition or fusion” value [2] was 7.18 ± 0.239 kcal/mol.
